The text below walks through data of patent publication US6921770B2 (priority 2000, dated 2005).

In the assay the test system is rice blast fungi. Format: in vivo, Pyricularia grisea.

As for `Br.COc1ccc(NC(=O)Cc2csc(=Nc3ccc(C)cc3)n2C)cc1` [Compound 309, 2-(4-methylphenylimino)-3-methyl-4-[N-(4-methoxyphenyl)carbamoylmethyl]-1,3-thiazol-4-ine hydrobromide], the “Inhibiting Ratio (%) (at 250 ppm)” value turned out to be 100%.

Consider `Br.CCc1ccc(N=c2scc(CC(=O)Nc3ccc(Cl)cc3)n2C)cc1` [Compound 304, 2-(4-ethylphenylimino)-3-methyl-4-[N-(4-chlorophenyl)carbamoylmethyl]-1,3-thiazol-4-ine hydrobromide], for which the “Inhibiting Ratio (%) (at 250 ppm)” value was found to be 100%.

“2-(3-chloro-4-fluorophenylimino)-3-methyl-4-[N-(methoxyphenyl)carbamoylmethyl]-1,3-thiazol-4-ine [Compound 336]”: the “Inhibiting Ratio (%) (at 250 ppm)” value is on record as 96%.

For the molecule `CC(C)Oc1cc(N=c2scc(CC(=O)Nc3ccc(Cl)cc3)n2C)c(F)cc1Cl.Cl` [Compound 161, 2-(4-chloro-5-isopropoxy-2-fluorophenylimino)-3-methyl-4-[N-(4-chlorophenyl)carbamoylmethyl]-1,3-thiazol-4-ine hydrochloride], the “Inhibiting Ratio (%) (at 250 ppm)” value was 86%.

On to `CC(C)Oc1cc(N=c2scc(CC(=O)Nc3ccc(C#N)cc3)n2C)c(F)cc1Cl.Cl` [Compound 226, 2-(4-chloro-5-isopropoxy-2-fluorophenylimino)-3-methyl-4-[N-(4-cyanophenyl)carbamoylmethyl]-4-thiazoline hydrochloride], for which the “Inhibiting Ratio (%) (at 250 ppm)” value turned out to be 92%.

On to `Br.COc1ccc(NC(=O)Cc2csc(=Nc3ccc(C(C)(C)C)cc3)n2C)cc1` [Compound 326, 2-(4-butyl(t-)phenylimino)-3-methyl-4-[N-(4-methoxyphenyl)carbamoylmethyl]-1,3-thiazol-4-ine hydrobromide], for which the “Inhibiting Ratio (%) (at 250 ppm)” value is recorded as 97%.

On to `Br.Cc1ccc(NC(=O)Cc2csc(=Nc3ccc(Cl)cc3Cl)n2C)cc1` [Compound 49, 2-(2,4-dichlorophenylimino)-3-methyl-4-[N-(4-methylphenyl)carbamoylmethyl]-1,3-thiazol-4-ine hydrobromide], for which the “Inhibiting Ratio (%) (at 250 ppm)” value turned out to be 100%.

Regarding `Br.Cc1ccc(NC(=O)Cc2csc(=Nc3cc(C)ccc3F)n2C)cc1` [Compound 52, 2-(2-fluoro-5-methylphenylimino)-3-methyl-4-[N-(4-methylphenyl)carbamoylmethyl]-1,3-thiazol-4-ine hydrobromide], the “Inhibiting Ratio (%) (at 250 ppm)” value worked out at 99%.

In the case of `Br.COc1ccc(N=c2scc(CC(=O)Nc3ccc(C)cc3)n2C)cc1` [Compound 29, 2-(4-methoxyphenylimino)-3-methyl-4-[N-(4-methylphenyl)carbamoylmethyl]-1,3-thiazol-4-ine hydrobromide], the “Inhibiting Ratio (%) (at 250 ppm)” value is reported as 100%.

On to `Br.Cc1ccc(NC(=O)Cc2csc(=Nc3ccc(C(F)(F)F)cc3)n2C)cc1` [Compound 14, 2-(4-trifluoromethylphenylimino)-3-methyl-4-[N-(4-methylphenyl)carbamoylmethyl]-1,3-thiazol-4-ine hydrobromide], for which the “Inhibiting Ratio (%) (at 250 ppm)” value is listed as 99%.

Consider `Br.CC(C)Oc1ccc(N=c2scc(CC(=O)Nc3ccc(Cl)cc3)n2C)cc1` [Compound 314, 2-(4-isopropoxyphenylimino)-3-methyl-4-[N-(4-chlorophenyl)carbamoylmethyl]-1,3-thiazol-4-ine hydrobromide], for which the “Inhibiting Ratio (%) (at 250 ppm)” value is reported as 100%.

Turning to `Cl.Cn1c(CC(=O)Nc2ccc(Br)cc2)csc1=Nc1ccc(F)cc1Cl` [Compound 140, 2-(2-chloro-4-fluorophenylimino)-3-methyl-4-[N-(4-bromophenyl)carbamoylmethyl]-1,3-thiazol-4-ine hydrochloride], the “Inhibiting Ratio (%) (at 250 ppm)” value stood at 99%.

Regarding `Br.COc1ccc(N=c2scc(CC(=O)Nc3ccc(Cl)cc3)n2C)cc1` [Compound 308, 2-(4-methoxyphenylimino)-3-methyl-4-[N-(4-chlorophenyl)carbamoylmethyl]-1,3-thiazol-4-ine hydrobromide], the “Inhibiting Ratio (%) (at 250 ppm)” value is recorded as 99%.
